By DC50 is commonly meant the concentration giving 50% degradation. The term Dmax denotes the greatest extent of degradation seen.

The target of this test is T1, androgen receptor (AR) (Homo sapiens, UniProt P10275).
T1 sequence (P10275 1-920): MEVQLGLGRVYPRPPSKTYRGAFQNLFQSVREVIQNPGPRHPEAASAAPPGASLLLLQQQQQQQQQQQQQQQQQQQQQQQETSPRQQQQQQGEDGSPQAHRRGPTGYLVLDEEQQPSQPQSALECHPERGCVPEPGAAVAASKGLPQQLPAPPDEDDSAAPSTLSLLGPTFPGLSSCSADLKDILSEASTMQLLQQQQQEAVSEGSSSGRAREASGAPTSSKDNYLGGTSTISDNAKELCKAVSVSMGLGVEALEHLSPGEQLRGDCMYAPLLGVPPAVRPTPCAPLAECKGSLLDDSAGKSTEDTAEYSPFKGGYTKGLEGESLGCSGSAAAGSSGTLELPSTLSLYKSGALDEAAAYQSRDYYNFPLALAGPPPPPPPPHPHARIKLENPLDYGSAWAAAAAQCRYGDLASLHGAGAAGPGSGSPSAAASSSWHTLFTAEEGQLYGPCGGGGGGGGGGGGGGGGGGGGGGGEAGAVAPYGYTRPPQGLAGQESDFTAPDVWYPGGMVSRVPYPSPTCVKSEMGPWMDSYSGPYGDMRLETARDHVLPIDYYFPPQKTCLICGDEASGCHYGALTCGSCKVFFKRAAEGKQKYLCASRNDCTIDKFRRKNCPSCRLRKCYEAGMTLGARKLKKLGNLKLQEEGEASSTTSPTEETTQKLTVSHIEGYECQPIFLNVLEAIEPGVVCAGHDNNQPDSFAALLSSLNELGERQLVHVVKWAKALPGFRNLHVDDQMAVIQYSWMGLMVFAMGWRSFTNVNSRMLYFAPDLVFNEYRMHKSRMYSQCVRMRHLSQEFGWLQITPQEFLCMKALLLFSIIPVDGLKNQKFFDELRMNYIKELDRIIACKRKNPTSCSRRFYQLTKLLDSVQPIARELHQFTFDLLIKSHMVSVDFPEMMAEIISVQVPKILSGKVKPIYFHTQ
As to the kind of experiment: Degradation of androgen receptor (AR) protein in VCaP cells by ELISA. It counts as cell-based. As to conditions: for Dmax: VCaP. (In general: In an ELISA, binding on a coated surface is turned into a signal by an enzyme label.)

Where [1] appears, read: AR degradation, VCaP cells, 16 h, ELISA, Table 3-2, read-out: DC50.
Setting [2] is: AR degradation, VCaP cells, 16 h, ELISA, Table 3-2, read-out: Dmax (%).

Where two headings read alike, the source gives them in different places.

As to `CC1(C)[C@H](Oc2ccc(C#N)c(Cl)c2)C(C)(C)[C@H]1N1Cc2nc(C#CC3CCC(N4CC5CC4CN5c4ccc5c(c4)C(=O)N(C4CCC(=O)NC4=O)C5=O)CC3)cnc2C1=O` (stereo partly drawn) [Compound 388, 2-Chloro-4-((1r,3r)-3-(2-((4-(5-(2-(2,6-dioxopiperidin-3-yl)-1,3-dioxoisoindolin-5-yl)-2,5-diazabicyclo[2.2.1]heptan-2-yl)cyclohexyl)ethynyl)-5-oxo-5,7-dihydro-pyrrolo[3,4-b]pyrazine-26-yl)-2,2,4,4-tetramethylcyclobutoxy) benzonitrile], the “Dmax (%)” value (AR degradation, VCaP cells, 16 h, ELISA, Table 3-2) is on record as “++ (60%-40%)”. Further, the DC50 under setting [1] fell in the range of 100 to 300 nM.
`CC1(C)[C@H](Oc2ccc(C#N)c(Cl)c2)C(C)(C)[C@H]1N1Cc2nc(C#CC3CCC(N4CC5CC4CN5c4ccc5c(c4)C(=O)N(C4CCC(=O)NC4=O)C5=O)CC3)cnc2C1=O` (stereo partly drawn) [Compound 389, 2-Chloro-4-((1r,3r)-3-(2-((4-(5-(2-(2,6-dioxopiperidin-3-yl)-1,3-dioxoisoindolin-5-yl)-2,5-diazabicyclo[2.2.1]heptan-2-yl)cyclohexyl)ethynyl)-5-oxo-5,7-dihydro-pyrrolo[3,4-b]pyrazine-26-yl)-2,2,4,4-tetramethylcyclobutoxy) benzonitrile]: the 50% degradation concentration (DC50) under setting [1] is over 300 nM. The Dmax under setting [2] was under 40%.
In the same order, the values of `CC1(C)[C@H](Oc2ccc(C#N)c(Cl)c2)C(C)(C)[C@H]1N1Cc2nc(C#C[C@H]3C[C@H](N4CCN(c5ccc6c(c5)C(=O)N(C5CCC(=O)NC5=O)C6=O)CC4)C3)cnc2C1=O` (stereo partly drawn) [Compound 390] are under 10 nM and 60 to 80%.
For the compound `CC1(C)[C@H](Oc2ccc(C#N)c(Cl)c2)C(C)(C)[C@H]1N1Cc2nc(C#C[C@H]3C[C@H](N4CCN(c5cc6c(cc5F)C(=O)N(C5CCC(=O)NC5=O)C6=O)CC4)C3)cnc2C1=O` (stereo partly drawn) [Compound 391], the DC50 under setting [1] was 100 to 300 nM. In addition, the Dmax under setting [2] is over 80%.
Take `COc1cc(O[C@H]2C(C)(C)[C@H](N3Cc4nc(C#C[C@H]5C[C@H](N6CCN(c7ccc8c(c7)C(=O)N(C7CCC(=O)NC7=O)C8=O)CC6)C5)ccc4C3=O)C2(C)C)ccc1C#N` (stereo partly drawn) [Compound 392]: under setting [1], the DC50 was 10 to 100 nM. Besides, the Dmax under setting [2] is over 80%.
In the same order, the values of `COc1cc(O[C@H]2C(C)(C)[C@H](N3Cc4nc(C#C[C@H]5C[C@H](N6CCN(c7cc8c(cc7F)C(=O)N(C7CCC(=O)NC7=O)C8=O)CC6)C5)ccc4C3=O)C2(C)C)ccc1C#N` (stereo partly drawn) [Compound 393] are 10 to 100 nM and over 80%.
In the same order, the values of `CC1(C)[C@H](Oc2ccc(C#N)c(Cl)c2)C(C)(C)[C@H]1N1Cc2nc(C#C[C@H]3C[C@H](N4CCN(c5cnn(C6CCC(=O)NC6=O)c(=O)c5)CC4)C3)ccc2C1=O` (stereo partly drawn) [Compound 394] are 10 to 100 nM and 60 to 80%.
In the same order, the values of `CC1(C)[C@H](Oc2ccc(C#N)c(Cl)c2)C(C)(C)[C@H]1N1Cc2nc(C#C[C@H]3C[C@H](N4CCN(c5cc(=O)n(C6CCC(=O)NC6=O)cn5)CC4)C3)ccc2C1=O` (stereo partly drawn) [Compound 395] are 100 to 300 nM and 40 to 60%.
As to `CC1(C)[C@H](Oc2ccc(C#N)c(Cl)c2)C(C)(C)[C@H]1N1Cc2nc(C#C[C@H]3C[C@H](N4CCN(c5ccc6c(=O)n(C7CCC(=O)NC7=O)cnc6c5)CC4)C3)ccc2C1=O` (stereo partly drawn) [Compound 396], the DC50 under setting [1] lay within 10 to 100 nM. Further, the greatest degradation seen (Dmax) under setting [2] is over 80%.
In the case of `CC1(C)[C@H](Oc2ccc(C#N)c(Br)c2)C(C)(C)[C@H]1N1Cc2nc(C#C[C@H]3CC[C@H](N4CCN(c5cc6c(cc5F)C(=O)N(C5CCC(=O)NC5=O)C6=O)CC4)CC3)ccc2C1=O` (stereo partly drawn) [Compound 397], the DC50 under setting [1] lay within 10 to 100 nM. In addition, under setting [2], the Dmax is over 80%.
In the case of `CC1(C)[C@H](Oc2ccc(C#N)c(Br)c2)C(C)(C)[C@H]1N1Cc2nc(C#C[C@H]3CC[C@H](N4CCN(c5ccc6c(c5)C(=O)N(C5CCC(=O)NC5=O)C6=O)CC4)CC3)ccc2C1=O` (stereo partly drawn) [Compound 398], the DC50 under setting [1] fell in the range of 10 to 100 nM. Also, the Dmax under setting [2] was over 80%.
Take `COc1cc(O[C@H]2C(C)(C)[C@H](N3Cc4nc(C#C[C@H]5CC[C@H](N6CCN(c7cc8c(cc7F)C(=O)N(C7CCC(=O)NC7=O)C8=O)CC6)CC5)ccc4C3=O)C2(C)C)ccc1C#N` (stereo partly drawn) [Compound 399]: the DC50 under setting [1] is under 10 nM. The Dmax under setting [2] was over 80%.
`Cc1cc(O[C@H]2C(C)(C)[C@H](N3Cc4nc(C#C[C@H]5CC[C@H](N6CCN(c7cc8c(cc7F)C(=O)N(C7CCC(=O)NC7=O)C8=O)CC6)CC5)ccc4C3=O)C2(C)C)ccc1C#N` (stereo partly drawn) [Compound 401] gave a Dmax of over 80%. Under setting [1], the DC50 was 10 to 100 nM.
`Cc1cc(O[C@H]2C(C)(C)[C@H](N3Cc4nc(C#C[C@H]5CC[C@H](N6CCN(c7ccc8c(c7)C(=O)N(C7CCC(=O)NC7=O)C8=O)CC6)CC5)ccc4C3=O)C2(C)C)ccc1C#N` (stereo partly drawn) [Compound 402] gave a DC50 of under 10 nM and a Dmax of over 80%.
In the same order, the values of `N#Cc1ccc(O[C@H]2CC[C@H](NC(=O)c3nc(N4CCC(CN5CCC6(CC5)CN(c5ccc7c(c5)C(=O)N(C5CCC(=O)NC5=O)C7=O)C6)CC4)no3)CC2)cc1Cl` (stereo partly drawn) [Compound 413] are under 10 nM and over 80%.
Consider `N#Cc1ccc(O[C@H]2CC[C@H](NC(=O)c3nnc(N4CCC(CN5CCC6(CC5)CN(c5ccc7c(c5)C(=O)N(C5CCC(=O)NC5=O)C7=O)C6)CC4)o3)CC2)cc1Cl` (stereo partly drawn) [Compound 414], for which the 50% degradation concentration (DC50) under setting [1] is under 10 nM. In addition, the Dmax under setting [2] is over 80%.
With `N#Cc1ccc(O[C@H]2CC[C@H](NC(=O)c3noc(N4CCC(CN5CCC6(CC5)CN(c5ccc7c(c5)C(=O)N(C5CCC(=O)NC5=O)C7=O)C6)CC4)n3)CC2)cc1Cl` (stereo partly drawn) [Compound 415], the DC50 is under 10 nM and the Dmax was over 80%.
In the case of `N#Cc1ccc(O[C@H]2CC[C@H](NC(=O)c3ccn([C@H]4CC[C@H](CN5CCC6(CC5)CN(c5ccc7c(c5)C(=O)N(C5CCC(=O)NC5=O)C7=O)C6)CC4)n3)CC2)cc1Cl` (stereo partly drawn) [Compound 416, N-((1r,4R)-4-(3-chloro-4-cyanophenoxy)cyclohexyl)-1-((1r,4R)-4-((2-(2-(2,6-dioxopiperidin-3-yl)-1,3-dioxoisoindolin-5-yl)-2,7-diazaspiro[3.5]nonan-7-yl)methyl)cyclohexyl)-1H-pyrazole-3-formamide], the DC50 under setting [1] was under 10 nM. Further, the greatest degradation seen (Dmax) under setting [2] was over 80%.
In the same order, the values of `N#Cc1ccc(O[C@H]2CC[C@H](NC(=O)c3cnc(N4CCC(CN5CCC6(CC5)CN(c5cc7c(cc5F)C(=O)N(C5CCC(=O)NC5=O)C7)C6)CC4)nn3)CC2)cc1Cl` (stereo partly drawn) [Compound 417] are under 10 nM and over 80%.
Regarding `N#Cc1ccc(O[C@H]2CC[C@H](NC(=O)c3cnc(N4CCC(CN5CCC6(CC5)CN(c5ccc7c(c5)C(=O)N(C5CCC(=O)NC5=O)C7=O)C6)CC4)nn3)CC2)cc1Br` (stereo partly drawn) [Compound 419], the “Dmax (%)” value is “++++ (key: A: >80%; B: 79%-50%; C: 49%-25%; D: <25%)”. The DC50 (read-out: DC50) was under 10 nM.
As for `N#Cc1ccc(O[C@H]2CC[C@H](NC(=O)c3cnc(N4CCC(CN5CCC6(CC5)CN(c5ccc7c(c5)C(=O)N(C5CCC(=O)NC5=O)C7=O)C6)CC4)nn3)CC2)cc1C(F)(F)F` (stereo partly drawn) [Compound 420, N-((1r,4r)-4-(4-cyano-3-trifluoromethyl-phenoxy)cyclohexyl)-3-(4-((2-(2-(2,6-dioxopiperidin-3-yl)-1,3-dioxoisoindolin-5-yl)-2,7-diazaspiro[3.5]nonane-7-yl)methyl)piperidin-1-yl)-1,2,4-triazine-6-formamide], the DC50 under setting [1] is under 10 nM. In addition, the maximal degradation (Dmax) under setting [2] was over 80%.
In the same order, the values of `[2H]C([2H])([2H])Oc1cc(O[C@H]2C(C)(C)[C@H](N3Cc4nc(C#C[C@H]5CC[C@H](N6CCN(c7ccc8c(c7)C(=O)N(C7CCC(=O)NC7=O)C8=O)CC6)CC5)ccc4C3=O)C2(C)C)ccc1C#N` (stereo partly drawn) [Compound 429] are under 10 nM and over 80%.
In the same order, the values of `CCOc1cc(O[C@H]2C(C)(C)[C@H](N3Cc4nc(C#C[C@H]5CC[C@H](N6CCN(c7ccc8c(c7)C(=O)N(C7CCC(=O)NC7=O)C8=O)CC6)CC5)ccc4C3=O)C2(C)C)ccc1C#N` (stereo partly drawn) [Compound 430] are 100 to 300 nM and 60 to 80%.
Regarding “N-((1r,4r)-4-(3-chloro-4-cyanophenoxy)cyclohexyl)-6-(2-((1-(2,6-dioxopiperidin-3-yl)-6-fluoro-1,3-dioxoisoindolin-5-yl)piperidine-4-yl)methyl)-2,7-diazaspiro[(3.5]nonan-7-yl)-N-(methyl-d3)pyridazine-3-formamide [Compound 91]”, the “Dmax (%)” value was “+ (key: ++++: >80%; +++: 80%-60%; ++: 60%-40%; +: <40%)”. In addition, the DC50 (read-out: DC50) is over 300 nM.
